Source: ChEMBL document CHEMBL4622979, “Non-rigid Diarylmethyl Analogs of Baloxavir as Cap-Dependent Endonuclease Inhibitors of Influenza Viruses” (J Med Chem, 2020)
Activity calls are given as the source filed them. The calls are words filed in the database; no cut-off is given here.

Tests used:
[1] = test system: HEK-293T; assay: (§1) Inhibition of CEN polymerase activity in Influenza A/California/04/2009 (H1N1)pdm09 NP/PA/PB1/PB2 complex transfected in HEK293T cells co-expressing beta-galactosidase at 100 nM preincubated for 3 hrs followed by viral gene transfection and measured after 24 hrs by ONPG substrate based luciferase reporter gene mini-replicon assay relative to control; type: cell-based; conditions: Influenza A virus (A/California/04/2009(H1N1))
[2] = test system: HEK-293T; assay: as §1, with “25” for “100”; type: cell-based; conditions: Influenza A virus (A/California/04/2009(H1N1))
[3] = test system: Influenza A virus; assay: Antiviral activity against Influenza A/California/04/2009 (H1N1)pdm09 infected in MDCK cells assessed as protection against virus-induced cell death by CellTiter-Glo assay; type: functional, organism-based; conditions: A/California/04/2009(H1N1) pdm09, MDCK
[4] = Cytotoxicity against MDCK cells assessed as reduction in cell viability by CellTiter-Glo assay; type: cell-based, Canis lupus familiaris; conditions: dog
[5] = Selectivity index, ratio of CC50 for MDCK cells to EC50 for Influenza A/California/04/2009 (H1N1)pdm09 virus infected in MDCK cells; type: toxicity, cell-based; conditions: dog, read-out: Ratio CC50/EC50
[6] = test system: Influenza A virus; assay: Antiviral activity against Influenza A virus (A/Denmark/524/2009(H1N1)) pdm09 infected in MDCK cells assessed as protection against virus-induced cell death measured 72 to 96 hrs post-infection by CellTiter-Glo assay; type: functional, organism-based; conditions: A/Denmark/524/2009(H1N1) pdm09, MDCK
[7] = test system: Influenza A virus H3N2; assay: Antiviral activity against Influenza A virus (A/Fukui/20/2004 (H3N2)) infected in MDCK cells assessed as protection against virus-induced cell death measured 72 to 96 hrs post-infection by CellTiter-Glo assay; type: functional, organism-based; conditions: A/Fukui/20/2004, MDCK
[8] = test system: Influenza B virus; assay: Antiviral activity against Victoria lineage of Influenza B virus (B/Brisbane/60/2008) infected in MDCK cells assessed as protection against virus-induced cell death measured 72 to 96 hrs post-infection by CellTiter-Glo assay; type: functional, organism-based; conditions: B/Brisbane/60/2008, MDCK
[9] = test system: Influenza B virus; assay: Antiviral activity against Yamagata lineage of Influenza B virus (B/Florida/4/2006) infected in MDCK cells assessed as protection against virus-induced cell death measured 72 to 96 hrs post-infection by CellTiter-Glo assay; type: functional, organism-based; conditions: B/Florida/4/2006, MDCK
[10] = Cytotoxicity against human MRC5 cells assessed as reduction in cell viability by ATP bioluminescence assay; type: cell-based
[11] = Cytotoxicity against human PBMC cells assessed as reduction in cell viability by ATP bioluminescence assay; type: cell-based
[12] = Cytotoxicity against MDCK cells assessed as reduction in cell viability by ATP bioluminescence assay; type: cell-based, Canis lupus familiaris; conditions: dog
[13] = Cytotoxicity against human HepG2 cells assessed as reduction in cell viability measured after 24 hrs in presence of glucose by MTT assay; type: cell-based
[14] = Cytotoxicity against human HepG2 cells assessed as reduction in cell viability measured after 24 hrs in presence of galactose by MTT assay; type: cell-based
[15] = Selectivity ratio of CC50 for human HepG2 cells assessed as reduction in cell viability measured after 24 hrs in presence of glucose to CC50 for human HepG2 cells assessed as reduction in cell viability measured after 24 hrs in presence of galactose; type: cell-based
[16] = biological target: dopamine transporter (sodium-dependent dopamine transporter) (Homo sapiens, UniProt Q01959); assay: Binding affinity to human dopamine transporter at 10 uM relative to control; type: ADME; conditions: read-out: Activity
[17] = Oral bioavailability in CD1 mouse at 10 mg/kg administered as single dose by LC-MS/MS analysis; type: ADME, organism-based; conditions: in vivo
[18] = Cmax in CD1 mouse plasma at 10 mg/kg, po administered as single dose by LC-MS/MS analysis; type: ADME, organism-based; parameters: dose 10 mg/kg, route oral
[19] = AUClast in CD1 mouse plasma at 10 mg/kg, po administered as single dose by LC-MS/MS analysis; type: ADME, organism-based; parameters: dose 10 mg/kg, route oral, time 0 - last
[20] = AUClast in CD1 mouse plasma at 2 mg/kg, iv administered as single dose by LC-MS/MS analysis; type: ADME, organism-based; parameters: dose 2 mg/kg, route intravenous, time 0 - last
[21] = Cmax in CD1 mouse lung at 10 mg/kg, po administered as single dose by LC-MS/MS analysis; type: ADME, organism-based; parameters: dose 10 mg/kg, route oral
[22] = AUClast in CD1 mouse lung at 10 mg/kg, po administered as single dose by LC-MS/MS analysis; type: ADME, organism-based; conditions: in vivo
[23] = Ratio of Cmax in CD1 mouse lung to plasma at 10 mg/kg, po administered as single dose by LC-MS/MS analysis; type: ADME, organism-based; conditions: lung and plasma
[24] = Ratio of AUClast in CD1 mouse lung to plasma at 10 mg/kg, po administered as single dose by LC-MS/MS analysis; type: ADME, organism-based; conditions: lung and plasma, read-out: Ratio AUC
[25] = Stability in simulated gastric fluid assessed as parent compound remaining at 1 uM measured after 4 hrs at pH 1.2 by LC-MS/MS analysis; type: physicochemical; conditions: read-out: Stability
[26] = Stability in simulated intestinal fluid assessed as parent compound remaining at 1 uM measured after 4 hrs at pH 1.2 by LC-MS/MS analysis; type: physicochemical; conditions: read-out: Stability
[27] = Stability in human plasma assessed as parent compound remaining at 1 uM measured after 4 hrs by LC-MS/MS analysis; type: ADME, cell-free; conditions: read-out: Stability
[28] = Stability in human liver S9 fraction assessed as parent compound remaining at 1 uM measured after 4 hrs by LC-MS/MS analysis; type: ADME, subcellular; conditions: read-out: Stability
[29] = Stability in rat plasma assessed as parent compound remaining at 1 uM measured after 4 hrs by LC-MS/MS analysis; type: ADME, cell-free; conditions: read-out: Stability
[30] = Stability in rat liver S9 fraction assessed as parent compound remaining at 1 uM measured after 4 hrs by LC-MS/MS analysis; type: ADME, subcellular; conditions: read-out: Stability
[31] = Stability in mouse plasma assessed as parent compound remaining at 1 uM measured after 4 hrs by LC-MS/MS analysis; type: ADME, cell-free; conditions: read-out: Stability
[32] = Stability in mouse liver S9 fraction assessed as parent compound remaining at 1 uM measured after 4 hrs by LC-MS/MS analysis; type: ADME, subcellular; conditions: read-out: Stability
[33] = Protein binding in human plasma at 1 uM measured after 4 hrs by LC-MS/MS analysis; type: ADME, cell-free; conditions: read-out: PPB (converted)
[34] = Protein binding in rat plasma at 1 uM measured after 4 hrs by LC-MS/MS analysis; type: ADME, cell-free; conditions: read-out: PPB (converted)
[35] = Protein binding in mouse plasma at 1 uM measured after 4 hrs by LC-MS/MS analysis; type: ADME, cell-free; conditions: read-out: PPB (converted)
[36] = test system: Influenza A virus; assay: (§2) Antiviral activity against Influenza A/California/04/2009 (H1N1)pdm09 infected in specific pathogen-free BALB/c mouse assessed as protection against virus-induced mouse death at 50 mg/kg, po administered via gavage immediately after infection and at 12 hrs post-infection measured on 16 days post-infection relative to control; type: functional
[37] = test system: Influenza A virus; assay: as §2, with “20” for “50”; type: functional
[38] = Toxicity in Influenza A/California/04/2009 (H1N1)pdm09 infected specific pathogen-free BALB/c mouse assessed as reduction in body weight at 20 to 50 mg/kg, po administered via gavage immediately after infection and at 12 hrs post-infection measured on 10 days post-infection; type: organism-based; conditions: in vivo, 240 h
[39] = Toxicity in Influenza A/California/04/2009 (H1N1)pdm09 infected specific pathogen-free BALB/c mouse assessed as effect on body weight at 20 to 50 mg/kg, po administered via gavage immediately after infection and at 12 hrs post-infection measured after 10 days post-infection; type: organism-based; conditions: in vivo, 240 h
[40] = test system: Influenza A virus; assay: Antiviral activity against Influenza A/California/04/2009 (H1N1)pdm09 infected in specific pathogen-free BALB/c mouse assessed as reduction in virus titre in lung at 20 mg/kg, po administered via gavage immediately after infection and at 12 hrs post-infection measured 24 hrs post-infection; type: functional, organism-based

dopamine transporter (sodium-dependent dopamine transporter), sequence (Q01959 whole entry): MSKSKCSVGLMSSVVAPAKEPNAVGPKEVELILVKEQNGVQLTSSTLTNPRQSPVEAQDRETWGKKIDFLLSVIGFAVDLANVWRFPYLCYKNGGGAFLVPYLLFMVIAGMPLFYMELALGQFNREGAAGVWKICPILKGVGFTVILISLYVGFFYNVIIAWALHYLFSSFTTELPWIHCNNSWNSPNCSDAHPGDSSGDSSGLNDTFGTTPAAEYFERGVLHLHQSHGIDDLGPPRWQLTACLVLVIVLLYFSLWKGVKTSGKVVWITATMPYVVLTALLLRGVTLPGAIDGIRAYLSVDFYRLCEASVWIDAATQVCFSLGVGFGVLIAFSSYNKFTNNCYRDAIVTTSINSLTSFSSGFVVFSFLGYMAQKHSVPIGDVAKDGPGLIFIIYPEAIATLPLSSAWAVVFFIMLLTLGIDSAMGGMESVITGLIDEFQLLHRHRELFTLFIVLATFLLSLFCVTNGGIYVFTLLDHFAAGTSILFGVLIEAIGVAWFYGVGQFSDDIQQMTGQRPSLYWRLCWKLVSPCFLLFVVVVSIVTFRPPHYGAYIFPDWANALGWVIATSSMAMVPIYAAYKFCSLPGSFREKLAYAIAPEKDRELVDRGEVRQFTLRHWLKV

**Q.** Which results are given for `O=C1c2c(O)c(=O)ccn2N(C(c2ccccc2)c2ccccc2)[C@@H]2COCCN12`?
**A.** inhibition [1]: 70%; inhibition [2]: 17.8%; EC50 [3]: 0.0185 µM; CC50 [4]: 12.1 µM; selectivity ratio [5]: 654; EC50 [6]: 0.0036 to 0.0125 µM; EC50 [7]: 0.0036 to 0.0125 µM; EC50 [8]: 5.1 to 28.3 µM; EC50 [9]: 5.1 to 28.3 µM; CC50 [10]: > 100 µM; CC50 [11]: 21 µM; CC50 [12]: 5.8 µM; CC50 at 24 h [13]: 20 µM; CC50 at 24 h [14]: 18 µM; selectivity ratio at 24 h [15]: 1.1; activity at 10 µM [16]: 71.7%; bioavailability [17]: 38.2%; Cmax [18]: 1660 ng/mL; AUC(0-t) [19]: 2420 ng·h/mL; AUC(0-t) [20]: 844 ng·h/mL; Cmax [21]: 3720 ng/g; AUClast [22]: 7477 ng·h/g; Kp [23]: 2.2; Kp [24]: 3.1; remaining at 4 h, 1 µM [25]: 96%; remaining at 4 h, 1 µM [26]: 89.3%; remaining at 4 h, 1 µM [27]: 63.2%; remaining at 4 h, 1 µM [28]: 82.8%; remaining at 4 h, 1 µM [29]: 71.4%; remaining at 4 h, 1 µM [30]: 79%; remaining at 4 h, 1 µM [31]: 70.1%; remaining at 4 h, 1 µM [32]: 97.1%; fraction unbound at 4 h, 1 µM [33]: 0.033; fraction unbound at 4 h, 1 µM [34]: 0.193; fraction unbound at 4 h, 1 µM [35]: 0.138; Activity [36]: 60%; Activity [37]: 80%; Activity [38]: Toxic; Activity [39]: Non-Toxic; Activity [40]: Active
